Results: patent publication US20140364453A1, “SALUBRINAL-DRIVEN ATTENUATION OF MALIGNANT PHENOTYPES OF 4T1 BREAST CANCER CELLS” (Indiana University Research and Technology Corporation, priority 2013, published 2014)

Legend:
[1] = test system: NFATc1, TRAP, OSCAR, c-fos, MMP9, and cathepsin K; assay: Relative mRNA abundance in primary mouse bone marrow cells; assay type: cell-based; details: 10 μM; 24 h
4T1 cells [2] = assay: Cell adhesion assay, 4T1 cells; assay type: cell-based, mouse; details: surfaces coated with poly-L-lysine, type I collagen, fibronectin, laminin; 30 min and 3 h
Method: 4T1 mouse mammary tumor cells and MDA-MB-231 human breast cancer cells were cultured in DMEM containing 10% fetal bovine serum and antibiotics (50 units/ml penicillin, and 50 μg/ml streptomycin; Life Technologies, Grand Island, N.Y., USA). Cells were maintained at 37° C. and 5% CO2 in a humidified incubator. Responses to administration of 10-50 μM salubrinal or 5-50 μM guanabenz acetate (Tocris Bioscience, Ellisville, Mo., USA) were evaluated using assays for MTT, adhesion, invasion, and motility. Ninety-six well plates were coated with poly-L-lysine, fibronectin, laminin (Sigma-Aldrich, St. Louis, Mo., USA), or type I collagen (BD Biosciences, Bedford, Mass., USA) for 2 h. The plates were then incubated with non-fat dry milk, followed by washing with PBS and serum-free culture medium. Cells (1×10^4/well) were added on the plate, and after 30 min and 3 h the attached cells were stained with 0.04% crystal violet (Sigma-Aldrich) for 10 min at room temperature. The wells were washed with PBS, and DMSO was added. Absorbance at 550 nm was measured using the plate reader.

[3] = test system: MDA-MB-231 human breast cancer cells; assay: Scratch motility assay, MDA-MB-231 cells; assay type: cell-based; details: 20 or 50 μM salubrinal, 24 h, 10% serum
Method: (§1) 4T1 mouse mammary tumor cells and MDA-MB-231 human breast cancer cells were cultured in DMEM containing 10% fetal bovine serum and antibiotics (50 units/ml penicillin, and 50 μg/ml streptomycin; Life Technologies, Grand Island, N.Y., USA). Cells were maintained at 37° C. and 5% CO2 in a humidified incubator. Responses to administration of 10-50 μM salubrinal or 5-50 μM guanabenz acetate (Tocris Bioscience, Ellisville, Mo., USA) were evaluated using assays for MTT, adhesion, invasion, and motility. To evaluate 2-dimensional motility, a wound healing scratch motility assay was carried out. In brief, cells were plated in 12-well plates or 6-cm dishes (Falcon) and on the next day, scratching was performed using a plastic tip. The areas newly occupied with cells in the scratched zone were determined every 3 h up to 24 h using images obtained by a microscope, which were scanned with Adobe Photoshop (CS2, Adobe Systems, San Jose, Calif., USA) and quantified with Image J.

Rac1 GTPase [4] = assay: FRET-based Rac1 activity imaging, 4T1 cells; assay type: cell-based, mouse; details: 20 μM salubrinal
Method: (§2) To visualize Rac1 activity in response to salubrinal, FRET imaging was conducted using a cyan fluorescent protein (CFP)-yellow fluorescent protein (YFP) Rac1 biosensor. The filter sets (Semrock) were chosen for CFP excitation at 438±24 nm (center wavelength±bandwidth), CFP emission at 483±32 nm, and YFP emission at 542±27 nm. Time-lapse images were acquired at an interval of 5 min using a fluorescence microscope (Nikon, Tokyo, Japan). The level of Rac1 activity was determined by computing an emission ratio of YFP/CFP for individual cells using NIS-Elements software (Nikon).

[5] = test system: 4T1 mouse mammary tumor cells; assay: MTT assay, 4T1 cells; assay type: cell-based
Method: (§3) 4T1 mouse mammary tumor cells and MDA-MB-231 human breast cancer cells were cultured in DMEM containing 10% fetal bovine serum and antibiotics (50 units/ml penicillin, and 50 μg/ml streptomycin; Life Technologies, Grand Island, N.Y., USA). Cells were maintained at 37° C. and 5% CO2 in a humidified incubator. Responses to administration of 10-50 μM salubrinal or 5-50 μM guanabenz acetate (Tocris Bioscience, Ellisville, Mo., USA) were evaluated using assays for MTT, adhesion, invasion, and motility. Cells (5×10^2/well) were seeded in 96-well plates, and the reduction of MTT to formazan was evaluated by measuring the absorbance at 570 nm with a plate reader (EL800, BioTek, Winooski, Vt., USA).

NFATc1 = NFATc1 protein expression in primary mouse bone marrow cells; assay type: cell-based; details: 10 or 20 μM; 2 days
[6] = test system: MDA-MB-231 human breast cancer cells; assay: MTT assay, MDA-MB-231 cells; assay type: cell-based; details: 20 or 50 μM salubrinal
Method: as §3

Rac1 GTPase [7] = assay: FRET-based Rac1 activity imaging, MDA-MB-231 cells; assay type: cell-based, human; details: 20 μM salubrinal
Method: as §2

[8] = test system: MDA-MB-231 human breast cancer cells; assay: In vitro invasion assay, MDA-MB-231 cells; assay type: cell-based; details: 20 or 50 μM salubrinal, 24 h, absence of serum
Method: (§4) 4T1 mouse mammary tumor cells and MDA-MB-231 human breast cancer cells were cultured in DMEM containing 10% fetal bovine serum and antibiotics (50 units/ml penicillin, and 50 μg/ml streptomycin; Life Technologies, Grand Island, N.Y., USA). Cells were maintained at 37° C. and 5% CO2 in a humidified incubator. Responses to administration of 10-50 μM salubrinal or 5-50 μM guanabenz acetate (Tocris Bioscience, Ellisville, Mo., USA) were evaluated using assays for MTT, adhesion, invasion, and motility. An invasion assay was performed with a Boyden chamber with minor modifications of the usual procedure. In brief, Matrigel (BD Biosciences) was diluted with ice-cold PBS (100 μg/ml). Six-hundred μl of Matrigel was added to each filter (polyethylene terephthalate membrane, 8-μm pore size, 23.1 mm in diameter, Falcon) and left to polymerize overnight. Prior to assembling the chamber unit, the lower chamber (6-well plate, Falcon) was filled with culture medium consisting of salubrinal or guanabenz. Cells (1˜4×10^5/well) were added to the culture medium with salubrinal or guanabenz in the upper chamber and incubated for 24 h. The cells on the filter surface were stained with Giemsa (Sigma-Aldrich) and the number of cells was counted under the microscope.

cleaved caspase 3 [9] = assay: Western blot of cleaved caspase 3, MDA-MB-231 cells; assay type: cell-based, human; details: 20 or 50 μM salubrinal, absence of serum
Method: (§5) 4T1 mouse mammary tumor cells and MDA-MB-231 human breast cancer cells were cultured in DMEM containing 10% fetal bovine serum and antibiotics (50 units/ml penicillin, and 50 μg/ml streptomycin; Life Technologies, Grand Island, N.Y., USA). Cells were maintained at 37° C. and 5% CO2 in a humidified incubator. Responses to administration of 10-50 μM salubrinal or 5-50 μM guanabenz acetate (Tocris Bioscience, Ellisville, Mo., USA) were evaluated using assays for MTT, adhesion, invasion, and motility. Cells were lysed in a radioimmunoprecipitation assay (RIPA) buffer containing protease inhibitors (Santa Cruz Biotechnology, Santa Cruz, Calif., USA) and phosphatase inhibitors (Calbiochem, Billerica, Mass., USA). Isolated proteins were fractionated using 10-15% SDS gels and electro-transferred to Immobilon-P membranes (Millipore, Billerica, Mass., USA). The membrane was incubated for 1 h with primary antibodies followed by 45 min incubation with goat anti-rabbit or anti-mouse IgG conjugated with horseradish peroxidase (Cell Signaling, Danvers, Mass., USA). […] Protein levels were assayed using a SuperSignal west femto maximum sensitivity substrate (Thermo Scientific, Waltham, Mass., USA), and signal intensities were quantified with a luminescent image analyzer (LAS-3000, Fuji Film, Tokyo, Japan).

4T1 cells [10] = assay: In vitro invasion assay (Boyden chamber, Matrigel), 4T1 cells; assay type: cell-based, mouse; details: for number of cells invaded through the filter coated with Matrigel: 4T1 cells, 24 h, regardless of serum, 10-50 μM salubrinal, 5-50 μM guanabenz
Method: as §4

cleaved caspase 3 [11] = assay: Western blot of cleaved caspase 3, 4T1 cells; assay type: cell-based, mouse; details: absence and presence of 10% serum, 10-50 μM salubrinal, 5-50 μM guanabenz
Method: as §5

[12] = test system: primary mouse bone marrow cells; assay: Osteoclastogenesis in primary mouse bone marrow cells; assay type: cell-based; details: 10 or 20 μM; 3 days
[13] = test system: 4T1 mouse mammary tumor cells; assay: In vivo tumor growth, BALB/c mice injected with 4T1 cells; details: 4T1 cells s.c., 25 μg salubrinal s.c. daily, day 20, mean±S.D., N=18
Method: Experimental procedures were approved by the Indiana University Animal Care and Use Committee and were in compliance with the Guiding Principles in the Care and Use of Animals endorsed by the American Physiological Society. Five mice were housed per cage, and fed with mouse chow and water ad libitum. Thirty-five BALB/c female mice (6 weeks, Harlan Laboratories) were used. Mice received subcutaneous injection of 4T1 mouse mammary tumor cells (10^6 cells in 100 μl PBS) to the abdomen on day 1. Twenty-five μg of salubrinal was administered subcutaneously into the area of cell injection every day, while the control animals received a vehicle. The animals were sacrificed on day 20, and the volume and weight of tumors were determined. The tumor volume was calculated as (long diameter)×(short diameter)^2/2.

4T1 cells [14] = assay: Two-dimensional wound healing scratch motility assay, 4T1 cells; assay type: cell-based, mouse; details: for cell motility (scratch-wound assay): 4T1 cells, 20 or 50 μM, 24 h
Method: as §1

Structure (SMILES)	mRNA levels of NFATc1, TRAP, OSCAR, c-fos, MMP9, and cathepsin K [1]	cell adhesion (absorbance reading, number of adherent cells) (4T1 cells [2])	NFATc1 protein expression (NFATc1)	number of cells invaded through the filter coated with Matrigel (4T1 cells [10])	level of cleaved caspase 3 (cleaved caspase 3 [11])	TRAP-positive multi-nucleated cells [12]	development of osteoclasts [12]	cell motility (scratch-wound assay) (4T1 cells [14])	also measured
O=C(/C=C/c1ccccc1)NC(NC(=S)Nc1cccc2cccnc12)C(Cl)(Cl)Cl (stereo not drawn) [salubrinal]	reduced	did not significantly change	Suppression	significantly reduced	elevated	Reduction	Reduced development of osteoclasts	reduced in a dose dependent manner	cell motility [3]: Reduction in cell motility; salubrinal-driven reduction in Rac1 activity (Rac1 GTPase [4]; 4T1 cells transfected with eIF2α siRNA): significantly suppressed; Rac1 activity (emission ratio of YFP/CFP) (Rac1 GTPase [4]; 4T1 cells): decreased; number of live 4T1 cells (MTT) ([5]; 10, 20, and 50 μM salubrinal): reduced in a dose dependent manner; proliferation (relative cell growth) [6]: inhibitory effects; Rac1 activity (emission ratio of YFP/CFP) (Rac1 GTPase [7]): decreased; cell invasion [8]: Reduction in cell invasion; cleaved caspase 3 (cleaved caspase 3 [9]): Dose-dependent elevation; salubrinal-driven reduction in cell invasion (4T1 cells [10]; 4T1 cells treated with eIF2α siRNA vs NC siRNA, 20 or 50 μM salubrinal): significantly suppressed; cell invasion (4T1 cells [10]; 4T1 control cells treated with NC siRNA, 20 or 50 μM salubrinal): reduced by salubrinal in a dose dependent manner; tumor volume [13]: 384.5±248.1 mm^3; tumor weight [13]: 0.32 ± 0.24 g; salubrinal-driven reduction in cell motility (4T1 cells [14]; 4T1 cells treated with eIF2α siRNA, 20 or 50 μM salubrinal): also suppressed
N=C(N)N/N=C/c1c(Cl)cccc1Cl [guanabenz]	reduced	did not significantly change	Suppression	significantly reduced	elevated	Reduction	Reduced development of osteoclasts	reduced in a dose dependent manner	number of live 4T1 cells (MTT) ([5]; 50 μM guanabenz): decreased
